Experimental data: patent US20060281735A1, “Antipsychotic combination therapies and compositions of an alpha-2 adrenergic receptor antagonist and an atypical antipsychotic neuroleptic” (priority 2002, published 2006)
pKi: −log10 of the molar value.

Key:
α2 adrenoreceptors = conditions: binding studies; cited from earlier work
α2 autoreceptors = conditions: presynaptic level; antagonism of clonidine; cited from earlier work
[1] = system: α2-adrenergic receptor versus D2 receptor; conditions: literature; cited from earlier work
D2 dopamine receptor = target: T1, D2 dopamine receptor (Homo sapiens, UniProt P14416); conditions: at effective antipsychotic treatment; literature; cited from earlier work
T1 construct: In vivo D2 occupancy can be determined using finctional brain imaging technologies such as Positron Emission Tomography (PET); host or cells: brain of treated patients, in vivo imaging

Wistar rats = experiment: Conditioned avoidance response (CAR) behavior in rats; format: in vivo; conditions: rat CAR; 2.5 mg/kg with idazoxan versus about 5 mg/kg alone
From the text: Adult, male Wistar rats, 200-225 g (B & K Universal, Sollentuna, Sweden) were used. The animals were housed under standard laboratory conditions, on a reversed light/dark cycle (lights off 08:00 am), and allowed 1 week of adaptation to laboratory conditions before being used in experiments. Food and water were available ad libitum.
Rats were trained and tested in a conventional, manually operated two-way active avoidance (shuttlebox) apparatus connected to a high resistance power supply. The box was divided into two compartments of equal size by a partition with one opening. Upon presentation of the 80 dB white noise conditioned stimulus (CS), the animals had 10 seconds to move from one compartment of the shuttlebox into the other. If the rat remained in the same compartment for more than 10 seconds, an intermittent electric shock (approx. 0.2 mA of 0.5-sec duration; intershock interval 2.5 sec), the unconditioned stimulus (UCS), was presented in the grid floor until an escape was performed. […] Intertrial intervals varied at random between 20 and 40 seconds. The following variables were recorded: avoidance (response to CS within 10 sec); escape (response to CS+UCS); escape failures (failure to respond); and intertrial crosses. The animals were trained for 3 consecutive days. Training sessions were run over 15 minutes. […]

α2 receptor = conditions: idazoxan; stated with Litman et al. 1996; cited from earlier work

T1 sequence (P14416 whole entry): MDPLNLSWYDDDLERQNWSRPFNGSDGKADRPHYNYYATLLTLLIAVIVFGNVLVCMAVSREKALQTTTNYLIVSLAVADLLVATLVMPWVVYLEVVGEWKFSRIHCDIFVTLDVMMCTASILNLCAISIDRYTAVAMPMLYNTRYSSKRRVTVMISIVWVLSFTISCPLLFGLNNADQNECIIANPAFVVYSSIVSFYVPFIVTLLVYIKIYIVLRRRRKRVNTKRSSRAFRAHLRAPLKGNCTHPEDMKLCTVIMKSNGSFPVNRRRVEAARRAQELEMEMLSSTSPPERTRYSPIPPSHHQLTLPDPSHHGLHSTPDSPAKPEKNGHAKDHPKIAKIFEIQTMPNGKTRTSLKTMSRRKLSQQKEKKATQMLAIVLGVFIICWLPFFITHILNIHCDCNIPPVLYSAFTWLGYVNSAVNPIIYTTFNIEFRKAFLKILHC

SMILES: c1ccc2c(c1)OCC(C1=NCCN1)O2 (single isomer, unassigned; (+)) [(+)-idazoxan]
- Potency in inhibiting p-[3H]aminoclonidine binding, times more potent than the other enantiomer (α2 adrenoreceptors): 7-8 times
- Affinity towards the α2 autoreceptors, times higher than (−) idazoxan (α2 autoreceptors): 40 times

SMILES: Cc1nc2n(c(=O)c1CCN1CCC(c3noc4cc(F)ccc34)CC1)CCCC2 [risperidone]
- Fold less affinity for the α2 adrenergic receptor than for the dopamine D2 receptor [1]: 2-16 fold
- In vivo D2 occupancy (D2 dopamine receptor): ≥ 70%

SMILES: OCCOCCN1CCN(C2=Nc3ccccc3Sc3ccccc32)CC1 [quetiapine]
- Fold less affinity for the α2 adrenergic receptor than for the dopamine D2 receptor [1]: 6-16 fold

SMILES: O=C1Cc2cc(CCN3CCN(c4nsc5ccccc45)CC3)c(Cl)cc2N1 [ziprasidone]
- Fold less affinity for the α2 adrenergic receptor than for the dopamine D2 receptor [1]: 100 fold

SMILES: Cc1cc2c(s1)Nc1ccccc1N=C2N1CCN(C)CC1 [olanzapine]
- Reduction of olanzapine dose required for effective antipsychotic effect through adjunct idazoxan (Wistar rats): ~50%

SMILES: c1ccc2c(c1)OCC(C1=NCCN1)O2 (racemic) [idazoxan, ±-2-(1,4-benzodioxan-2-yl)-d-imidazoline]
- pKi (α2 receptor): ~7.52
